Source: the NIST ThermoML archive (doi:10.1021/acs.jced.9b00415)

Test: xn = mol fraction of the nth substance listed
Conditions: 102 kPa, Liquid; for viscosity: Concentric cylinders viscometry; for mass density: Vibrating tube method

CCCCn1cc[n+](C)c1.CS(=O)(=O)[O-] [1-butyl-3-methylimidazolium methanesulfonate] + CCCCn1cc[n+](C)c1.O=[N+]([O-])[O-]
Conditions | mass density [kg/m3] | viscosity [mPa·s]
303.15 K, x2 = 0.9 | 1154.3 | 180.1
308.15 K, x2 = 0.9 | 1151.1 | 135.4
313.15 K, x2 = 0.8 | 1149.3 | 113.6
313.15 K, x2 = 0.9 | 1147.9 | 104
318.15 K, x2 = 0.6 | 1150.5 | 103
318.15 K, x2 = 0.7 | 1148.5 | 97.85
318.15 K, x2 = 0.8 | 1146.2 | 88.38
318.15 K, x2 = 0.9 | 1144.7 | 81.49
323.15 K, x2 = 0.6 | 1147.3 | 80.7
323.15 K, x2 = 0.7 | 1145.4 | 77.05
323.15 K, x2 = 0.8 | 1143 | 70.03
323.15 K, x2 = 0.9 | 1141.6 | 64.96
328.15 K, x2 = 0.4 | 1146.9 | 70.76
328.15 K, x2 = 0.5 | 1145.4 | 66.57
328.15 K, x2 = 0.6 | 1144.1 | 64.37
328.15 K, x2 = 0.7 | 1142.2 | 61.72
328.15 K, x2 = 0.8 | 1139.9 | 56.42
328.15 K, x2 = 0.9 | 1138.5 | 52.61
333.15 K, x2 = 0.3 | 1144.9 | 59.13
333.15 K, x2 = 0.4 | 1143.8 | 56.85
333.15 K, x2 = 0.5 | 1142.2 | 53.7
333.15 K, x2 = 0.6 | 1141 | 52.18
333.15 K, x2 = 0.7 | 1139.1 | 50.22
333.15 K, x2 = 0.8 | 1136.8 | 46.14
333.15 K, x2 = 0.9 | 1135.4 | 43.23
338.15 K, x2 = 0.3 | 1141.8 | 48.04
338.15 K, x2 = 0.4 | 1140.6 | 46.37
338.15 K, x2 = 0.5 | 1139.1 | 43.99
338.15 K, x2 = 0.6 | 1137.9 | 42.9
338.15 K, x2 = 0.7 | 1136 | 41.44
338.15 K, x2 = 0.8 | 1133.7 | 38.25
338.15 K, x2 = 0.9 | 1132.3 | 35.99
343.15 K, x2 = 0.3 | 1138.6 | 39.58
343.15 K, x2 = 0.4 | 1137.5 | 38.34
343.15 K, x2 = 0.5 | 1136 | 36.52
343.15 K, x2 = 0.6 | 1134.8 | 35.74
343.15 K, x2 = 0.7 | 1132.9 | 34.63
343.15 K, x2 = 0.8 | 1130.6 | 32.11
343.15 K, x2 = 0.9 | 1129.3 | 30.32
348.15 K, x2 = 0.1 | 1138.3 | 34.98
348.15 K, x2 = 0.2 | 1136.8 | 34.5
348.15 K, x2 = 0.3 | 1135.5 | 33.03
348.15 K, x2 = 0.4 | 1134.4 | 32.1
348.15 K, x2 = 0.5 | 1132.9 | 30.69
348.15 K, x2 = 0.6 | 1131.7 | 30.13
348.15 K, x2 = 0.7 | 1129.9 | 29.28
348.15 K, x2 = 0.8 | 1127.6 | 27.25
348.15 K, x2 = 0.9 | 1126.2 | 25.81
353.15 K, x2 = 0.1 | 1135.2 | 29.38
353.15 K, x2 = 0.2 | 1133.6 | 29.04
353.15 K, x2 = 0.3 | 1132.4 | 27.88
353.15 K, x2 = 0.4 | 1131.3 | 27.17
353.15 K, x2 = 0.5 | 1129.8 | 26.08
353.15 K, x2 = 0.6 | 1128.6 | 25.68
353.15 K, x2 = 0.7 | 1126.8 | 25.02
353.15 K, x2 = 0.8 | 1124.5 | 23.36
353.15 K, x2 = 0.9 | 1123.2 | 22.2
358.15 K, x2 = 0.1 | 1132 | 24.94
358.15 K, x2 = 0.2 | 1130.5 | 24.71
358.15 K, x2 = 0.3 | 1129.3 | 23.79
358.15 K, x2 = 0.4 | 1128.2 | 23.23
358.15 K, x2 = 0.5 | 1126.8 | 22.38
358.15 K, x2 = 0.6 | 1125.6 | 22.09
358.15 K, x2 = 0.7 | 1123.8 | 21.57
358.15 K, x2 = 0.8 | 1121.5 | 20.21
358.15 K, x2 = 0.9 | 1120.2 | 19.26
363.15 K, x2 = 0.1 | 1128.9 | 21.39
363.15 K, x2 = 0.2 | 1127.4 | 21.27
363.15 K, x2 = 0.3 | 1126.2 | 20.51
363.15 K, x2 = 0.4 | 1125.1 | 20.04
363.15 K, x2 = 0.5 | 1123.7 | 19.36
363.15 K, x2 = 0.6 | 1122.5 | 19.18
363.15 K, x2 = 0.7 | 1120.7 | 18.76
363.15 K, x2 = 0.8 | 1118.5 | 17.63
363.15 K, x2 = 0.9 | 1117.2 | 16.86
